Assay results: patent US20200069650A1, “DEXMEDETOMIDINE OR MEDETOMIDINE FOR USE IN TREATING SEPARATION ANXIETY IN DOGS” (Orion Corporation, priority 2016, published 2020)

Test system: separation anxiety in dogs
Conditions: Example 6: mixed breed dog, behavioural modification supported by fluoxetine
Protocol: Oromucosal dexmedetomidine gel was then administered to buccal/gingival mucosa of the dog with a syringe using a dose of 125 μg/m^2 of dexmedetomidine hydrochloride about 15 minutes prior to unscheduled departures such as shopping and visiting friends.

SMILES: CNCCC(Oc1ccc(C(F)(F)F)cc1)c1ccccc1 (centres unmarked) [fluoxetine]
- effect of conventional therapy on regular daily work departures: enabled trouble free leaving dog at home during regular daily work departures
- signs of separation anxiety at unscheduled departures under conventional therapy (before gel): still showed signs of sepration anxiety to unscheduled departures
